Source: patent US10526327B2, “Histone demethylase inhibitors” (CELGENE QUANTICEL RESEARCH, INC., priority 2013, dated 2020)

Test system: KDM5A/B
Assay: In vitro cell-based assay: immuno-blot quantification of tri-methyl H3K4 in ZR-75-1 breast cancer cells
Conditions: 72 hours, tri-methyl H3K4 level relative to GAPDH, percent of DMSO, read-out: Cellular IC50
Excerpt: An assay to measure the degree of cellular inhibition of KDM5A and 5B was developed. This quantitative immuno-blotting assay measures the amount tri-methylated histone H3 at amino acid Lysine number 4, a specific substrate […] of the direct enzymatic activity of the histone demethylases KDM5A and KDM5B from extracts of the ZR-75-1 breast cancer cell line.
This assay is a fluorometric immunoassay for the quantification of tri-methyl H3K4 extracted from cells treated with test compound and is used as a measure of the cellular inhibition of KDM5A/B.
ZR-75-1 (PTEN null, ER+) breast cancer cells numbering 50,000 (ATCC) were seeded into each well of a 96-well tissue culture treated plate and then exposed to an 11 point dilution of test compound with final concentration ranges of test compound ranging from 1250 μM to 10 nM. Cells were left in the presence of test compound for 72 hours. Extracts were prepared containing all of the cellular histone material using detergent based lysis and sonication methods. These lysates were subsequently normalized for total protein content using a colorimetric bicinchonic acid assay (MicroBCA Pierce/Thermo Scientific). Normalized cell extracts were then subjected to typical immuno-blotting procedures using NuPage reagents (Life Technologies). Electrophoretically separated histones were then transferred and immobilized using polyvinylidene difluoride membrane (Immobilon-FL Millipore). The amount of tri-methylated lysine 4 of histone H3 was detected using an antibody specific to the tri-methylated state (Cell Signaling Technologies) and quantified on an infrared imager using a densitometry software package (Odyssey CLx, Image Studio, Li-Cor). This background subtracted densitometry value was reported as a ration of the GAPDH amount for that sample and then calculated as a percent of the DMSO treated sample. The software package XL-fit (IDBS) was then used to calculate a relative IC50 value for the dilution series of a given test compound according to the equation: fit=(D+((Vmax*(x^n))/((x^n)+(Km^n)))).

Row | SMILES | IC50
1 | CC(=O)Nc1ccc(Oc2nc(O)c3ccncc3n2)cc1 [Example 35, N-[4-(4-hydroxypyrido[3,4-d]pyrimidin-2-yl)oxyphenyl]acetamide] | 1 to 10 µM
2 | Oc1nc(Oc2ccc(F)c(F)c2)nc2cnccc12 [Example 37, 2-(3,4-difluorophenoxy)pyrido[3,4-d]pyrimidin-4-ol] | > 10 µM
3 | Oc1nc(Oc2cccc(F)c2)nc2cnccc12 [Example 40, 2-(3-fluorophenoxy)pyrido[3,4-d]pyrimidin-4-ol] | > 10 µM
4 | COc1cccc(Oc2nc(O)c3ccncc3n2)c1 [Example 44, 2-(3-methoxyphenoxy)pyrido[3,4-d]pyrimidin-4-ol] | > 10 µM
5 | CCOc1c(F)cc(Oc2nc(O)c3ccncc3n2)cc1F [Example 45, 2-(4-ethoxy-3,5-difluorophenoxy)pyrido[3,4-d]pyrimidin-4-ol] | > 10 µM
6 | COc1ccc(Oc2nc(O)c3ccncc3n2)cc1 [Example 48, 2-(4-methoxyphenoxy)pyrido[3,4-d]pyrimidin-4-ol] | > 10 µM
7 | CN(C)c1cccc(Oc2nc(O)c3ccncc3n2)c1 [Example 50, 2-[3-(dimethylamino)phenoxy]pyrido[3,4-d]pyrimidin-4-ol] | > 10 µM
8 | Oc1nc(Oc2cccc(C(F)(F)F)c2)nc2cnccc12 [Example 52, 2-[3-(trifluoromethyl)phenoxy]pyrido[3,4-d]pyrimidin-4-ol] | 1 to 10 µM
9 | COc1ccc(Oc2nc(O)c3ccncc3n2)cc1F [Example 53, 2-(3-fluoro-4-methoxyphenoxy)pyrido[3,4-d]pyrimidin-4-ol] | 1 to 10 µM
10 | CC(C)CCn1cc(Oc2nc(O)c3ccncc3n2)cn1 [Example 55, 2-{[1-(3-methylbutyl)pyrazol-4-yl]oxy}pyrido[3,4-d]pyrimidin-4-ol] | 1 to 10 µM
11 | Oc1nc(Oc2cnn(Cc3ccccc3)c2)nc2cnccc12 [Example 66, 2-[(1-benzyl-1H-pyrazol-4-yl)oxy]pyrido[3,4-d]pyrimidin-4-ol] | 1 to 10 µM
12 | CCOc1nc(O)c2ccnc(-c3cn(C)cn3)c2n1 [Example 69, 2-ethoxy-8-(1-methyl-1H-imidazol-4-yl)pyrido[3,4-d]pyrimidin-4-ol] | > 10 µM
13 | Cn1cnc(-c2nccc3c(O)nc(OCC(F)(F)F)nc23)c1 [Example 70, 8-(1-methyl-1H-imidazol-4-yl)-2-(2,2,2-trifluoroethoxy)pyrido[3,4-d]pyrimidin-4-ol] | 1 to 10 µM
14 | Cn1cnc(-c2nccc3c(O)nc(OCc4ccc(F)cc4)nc23)c1 [Example 71, 2-[(4-fluorobenzyl)oxy]-8-(1-methyl-1H-imidazol-4-yl)pyrido[3,4-d]pyrimidin-4-ol] | 1 to 10 µM
15 | Cn1cnc(-c2nccc3c(O)nc(OCCCC(F)(F)F)nc23)c1 [Example 74, 8-(1-methylimidazol-4-yl)-2-(4,4,4-trifluorobutoxy)pyrido[3,4-d]pyrimidin-4-ol] | 0.1 to 1 µM
16 | Cn1cnc(-c2nccc3c(O)nc(OCCO)nc23)c1 [Example 75, 2-(2-hydroxyethoxy)-8-(1-methylimidazol-4-yl)pyrido[3,4-d]pyrimidin-4-ol] | > 10 µM
17 | Oc1nc(Oc2cnn(Cc3ccc(F)cc3)c2)nc2cnccc12 [Example 86, 2-[1-(4-fluorobenzyl)pyrazol-4-yl]oxypyrido[3,4-d]pyrimidin-4-ol] | 1 to 10 µM
18 | Oc1nc(Oc2cnn(Cc3ccccc3F)c2)nc2cnccc12 [Example 87, 2-[1-(2-fluorobenzyl)pyrazol-4-yl]oxypyrido[3,4-d]pyrimidin-4-ol] | 0.1 to 1 µM
19 | CC(C)(C)OC(=O)N1CCC(n2cc(Oc3nc(O)c4ccncc4n3)cn2)CC1 [Example 88, tert-butyl 4-[4-(4-hydroxypyrido[3,4-d]pyrimidin-2-yl)oxypyrazol-1-yl]piperidine-1-carboxylate] | 1 to 10 µM

The next lines start with the values.

Row | IC50 | SMILES
20 | 1 to 10 µM | Oc1nc(OCc2ccccc2)nc2cnccc12 [Example 4, 2-phenylmethoxypyrido[3,4-d]pyrimidin-4-ol]
21 | > 10 µM | Oc1nc(OCC2CC2)nc2cnccc12 [Example 5, 2-(cyclopropylmethoxy)-3H-pyrido[3,4-d]pyrimidin-4-one]
22 | > 10 µM | CCCOc1nc(O)c2ccncc2n1 [Example 7, 2-propoxy-3H-pyrido[3,4-d]pyrimidin-4-one]
23 | > 10 µM | Oc1nc(OCCOc2ccccc2)nc2cnccc12 [Example 10, 2-(2-phenoxyethoxy)-3H-pyrido[3,4-d]pyrimidin-4-one]
24 | > 10 µM | Oc1nc(OCC2CCC2)nc2cnccc12 [Example 11, 2-(cyclobutylmethoxy)-3H-pyrido[3,4-d]pyrimidin-4-one]
25 | > 10 µM | Oc1nc(OCC(F)(F)F)nc2cnccc12 [Example 12, 2-(2,2,2-trifluoroethoxy)pyrido[3,4-d]pyrimidin-4-ol]
26 | > 10 µM | Oc1nc(Oc2cccc(Cl)c2)nc2cnccc12 [Example 41, 2-(3-chlorophenoxy)pyrido[3,4-d]pyrimidin-4-ol]
27 | > 10 µM | Oc1nc(Oc2ccc(F)cc2)nc2cnccc12 [Example 47, 2-(4-fluorophenoxy)pyrido[3,4-d]pyrimidin-4-ol]
28 | > 10 µM | Oc1nc(Oc2ccc(Cl)cc2)nc2cnccc12 [Example 49, 2-(4-chlorophenoxy)pyrido[3,4-d]pyrimidin-4-ol]
29 | 1 to 10 µM | CCCn1cc(Oc2nc(O)c3ccncc3n2)cn1 [Example 54, 2-(1-propylpyrazol-4-yl)oxypyrido[3,4-d]pyrimidin-4-ol]
30 | 1 to 10 µM | Oc1nc(Oc2cnn(C3CCCC3)c2)nc2cnccc12 [Example 56, 2-[(1-cyclopentylpyrazol-4-yl)oxy]pyrido[3,4-d]pyrimidin-4-ol]
31 | > 10 µM | CCc1cccc(Oc2nc(O)c3ccncc3n2)c1 [Example 57, 2-(3-ethylphenoxy)pyrido[3,4-d]pyrimidin-4-ol]
32 | 1 to 10 µM | Cn1cnc(-c2nccc3c(O)nc(OCC4CC4)nc23)c1 [Example 72, 2-(cyclopropylmethoxy)-8-(1-methylimidazol-4-yl)pyrido[3,4-d]pyrimidin-4-ol]
33 | 1 to 10 µM | Oc1nc(Oc2cnn(C3CCNCC3)c2)nc2cnccc12 [Example 89, 2-(1-piperidin-4-ylpyrazol-4-yl)oxypyrido[3,4-d]pyrimidin-4-ol]
